Assay results reported in paper PMC9865601 (2023).

How the values were obtained:
[1] = tested on: Htelo-C (DNA, i motif) TAACCCTAACCCTAACCCTAACCCTAA; assay: bio-layer interferometry; conditions: 50 mM KCl; 50 mM Tris-HCl, 2% DMSO, 0.05% P20; pH 5.5 (also pH 7.5); tested to 100 µM
[2] = tested on: c-myc (DNA, i motif) TCCCCACCTTCCCCACCCTCCCCACCCTCCCCA; assay: bio-layer interferometry; conditions: 50 mM KCl; 50 mM Tris-HCl, 2% DMSO, 0.05% P20; pH 5.5 (also pH 7.5); tested to 100 µM
[3] = tested on: ssDNA (DNA, single strand) GGCATAGTGCGTGGGCG; assay: bio-layer interferometry; conditions: 50 mM KCl; 50 mM Tris-HCl, 2% DMSO, 0.05% P20; tested up to 100 µM
[4] = tested on: HP-GC (DNA, hairpin) CGCGCGCGTTTTCGCGCGCG; assay: bio-layer interferometry; conditions: 50 mM KCl; 50 mM Tris-HCl, 2% DMSO, 0.05% P20; tested up to 100 µM
[5] = tested on: DAP-Mut (DNA, single strand) CTACCGCTAACGCCTTCGCTCTCGCTTTC; assay: bio-layer interferometry; conditions: 50 mM KCl; 50 mM Tris-HCl, 2% DMSO, 0.05% P20; tested up to 100 µM
[6] = tested on: HRAS (DNA, i motif) CGCCCGTGCCCTGCGCCCGCAACCCGA; assay: CD melting, heating ramp, 285 nm; conditions: 100 mM KCl; 10 mM LiAsO2Me2, pH 5.5; 2.5 µM oligo, 20 µM IMC-48
[7] = tested on: bcl-2 (DNA, i motif) CAGCCCCGCTCCCGCCCCCTTCCTCCCGCGCCCGCCCCT; assay: CD melting, heating ramp, 285 nm; conditions: 100 mM KCl; 10 mM LiAsO2Me2, pH 5.5; 2.5 µM oligo, 20 µM IMC-48
[8] = tested on: HTelo-C (DNA, i motif) TAACCCTAACCCTAACCCTAACCCTAA; assay: CD melting, heating ramp, 285 nm; conditions: 100 mM KCl; 10 mM LiAsO2Me2, pH 5.5; 2.5 µM oligo, 20 µM IMC-48
[9] = tested on: c-myc (DNA, i motif) TCCCCACCTTCCCCACCCTCCCCACCCTCCCCA; assay: CD melting, heating ramp, 285 nm; conditions: 100 mM KCl; 10 mM LiAsO2Me2, pH 5.5; 2.5 µM oligo, 20 µM IMC-48

binding [1]: no
binding [2]: no
binding [3]: no
binding [4]: no
binding [5]: no
∆Tm [6]: −1.2 ± 1.1 °C
∆Tm [7]: 0.2 ± 0.4 °C
∆Tm [8]: −1.2 ± 0.5 °C
∆Tm [9]: −0.5 ± 0.1 °C
SMILES: CC(C)CCC[C@@H](C)[C@H]1CC[C@H]2[C@@H]3CC[C@H]4C[C@H](NC(=O)C[N+]5(C)CCCCC5)CC[C@]4(C)[C@H]3CC[C@]12C
